The values that follow come from PubChem BioAssay (NCI).

Some test systems named below: DLD-1 colon; DMS 114 small cell lung; DMS 273 small cell lung; LXFL 529 NSCLC; XF 498 CNS; RXF-631 renal; SNB-78 CNS.
Holding throughout (assay): NCI-60 cell line screen, 48 h

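In this assay, cells in 96-well plates receive the compound at five concentrations for 48 hours. Endpoints are linearly interpolated between the surrounding concentrations. The concentration for full growth arrest is given as TGI.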

As for `CCCCCCCCCCCC(=O)OC[C@@H](C[As](=O)(O)O)OC(=O)CCCCCCCCCCC`, the TGI worked out at 33.3 µM with DLD-1 colon; 4.54 µM with DMS 114 small cell lung; 12.3 µM in the assay with DMS 273 small cell lung; 17.7 µM in the assay with LXFL 529 NSCLC; 29 µM in the assay with XF 498 CNS.
Consider `Nc1c(S(=O)(=O)c2ccccc2)c2nc3ccccc3nc2n2c1nc1ccccc12`, for which the TGI was more than 100 µM with DLD-1 colon; more than 100 µM in the assay on DMS 114 small cell lung; more than 71.9 µM with DMS 273 small cell lung; more than 100 µM with LXFL 529 NSCLC; 47.5 µM in the assay with RXF-631 renal; more than 62.1 µM with SNB-78 CNS. The TGI with XF 498 CNS was more than 44.5 µM.
On to `Cc1ccc(NC(=O)C(=O)C2C(=O)NC(=O)NC2=O)cc1C`, for which the TGI in the assay with DLD-1 colon, with DMS 273 small cell lung, with LXFL 529 NSCLC, in the assay with SNB-78 CNS and in the assay on XF 498 CNS was more than 100 µM in each case.
With `O=C1c2ccccc2C(=O)N1C/C=N/NS(=O)(=O)c1ccc(Br)cc1`, the TGI with DLD-1 colon, with DMS 114 small cell lung, with DMS 273 small cell lung, with LXFL 529 NSCLC, in the assay on RXF-631 renal and with SNB-78 CNS was more than 100 µM in each case. Also, the TGI with XF 498 CNS was more than 100 µM.
For `Cc1ccc(C(=O)NCc2ccccc2)cc1N=NN(C)C`, the TGI in the assay on DLD-1 colon, with DMS 273 small cell lung, with LXFL 529 NSCLC and in the assay on SNB-78 CNS was more than 100 µM in each case.
Take `CC(=O)OC(CCC1(C)OC1COc1ccc(CCNC(=O)C=C(C)C)cc1)C(C)(C)OC(C)=O` (stereo unspecified): the TGI is 48.7 µM in the assay on DMS 114 small cell lung; more than 100 µM in the assay on DMS 273 small cell lung; more than 100 µM in the assay on LXFL 529 NSCLC; more than 100 µM in the assay with SNB-78 CNS; 86.3 µM in the assay on XF 498 CNS.
`C[n+]1c2ccccc2c(NC(CCCN=C(N)N)C(=O)O)c2ccccc21` (stereo unspecified): the TGI with DLD-1 colon, in the assay on DMS 114 small cell lung, in the assay on DMS 273 small cell lung, in the assay on LXFL 529 NSCLC, with SNB-78 CNS and in the assay with XF 498 CNS was more than 100 µM each time.
As to `COc1ccc2nc3cc(Cl)ccc3c(Sc3ccc(NC(C)=O)cc3)c2c1`, the TGI with DLD-1 colon was more than 24.1 µM; with DMS 114 small cell lung it was 14.1 µM; with DMS 273 small cell lung, 21.6 µM; in the assay with LXFL 529 NSCLC, more than 23.5 µM; in the assay on RXF-631 renal, more than 100 µM; in the assay on SNB-78 CNS, 62.1 µM. Further, the TGI in the assay with XF 498 CNS was more than 25.2 µM.
In the case of `COc1cc(-c2nnc3n2NC=C(C(=O)O)S3)cc(OC)c1OC`, the TGI in the assay with DLD-1 colon is more than 79.9 µM; with DMS 114 small cell lung, more than 70 µM; with DMS 273 small cell lung it was more than 82.9 µM; in the assay with LXFL 529 NSCLC, more than 100 µM; in the assay on RXF-631 renal it was more than 100 µM; in the assay with SNB-78 CNS, more than 100 µM. In the assay with XF 498 CNS, this compound registered a TGI of more than 100 µM.
Turning to `CN(C)CCCNc1ccc2ncn3c4ccc(O)cc4c(=O)c1c23`, the TGI with DLD-1 colon was found to be 16.5 µM; with DMS 114 small cell lung, 16.7 µM; with DMS 273 small cell lung it was 12.1 µM; with LXFL 529 NSCLC, 17.7 µM; with RXF-631 renal, 12.2 µM; in the assay with SNB-78 CNS, 26.6 µM. Besides, the TGI in the assay with XF 498 CNS was 19.6 µM.
Consider `c1ccc2c(c1)OCCOCCOc1ccccc1OCCO2`, for which the TGI in the assay on DLD-1 colon, in the assay with DMS 114 small cell lung, in the assay on DMS 273 small cell lung, in the assay with LXFL 529 NSCLC and in the assay on SNB-78 CNS was more than 100 µM in each case.
Regarding `CSc1ccc2c(cc1=O)[C@@H](NC(=O)c1cc(O)c(O)c(O)c1)CCc1cc(O)c(O)c(O)c1-2`, the TGI stood at 55.7 µM with DLD-1 colon; 39.9 µM in the assay with DMS 273 small cell lung; 37.8 µM in the assay with LXFL 529 NSCLC; 30.4 µM with RXF-631 renal; 91.8 µM in the assay on SNB-78 CNS; 39.4 µM with XF 498 CNS.
`Cc1c2ccc3ccccc3c2c[n+]2ccccc12`: the TGI with DLD-1 colon was more than 100 µM; in the assay with DMS 114 small cell lung, 20.7 µM; with DMS 273 small cell lung, more than 50.2 µM; with LXFL 529 NSCLC, 24.2 µM; in the assay on SNB-78 CNS it was more than 100 µM.
With `COc1ccc(/C=N/N=C(\N)NO)c(OC)c1C`, the TGI in the assay with DLD-1 colon was more than 100 µM; in the assay on DMS 114 small cell lung, 71.9 µM; with LXFL 529 NSCLC it was more than 100 µM; in the assay on SNB-78 CNS, more than 100 µM.
Consider `CCOC(=O)CCC(NC(=O)c1ccc(NCc2ccc3nc(-c4ccccc4)c(Cl)nc3c2)cc1)C(=O)OCC` (stereo unspecified), for which the TGI in the assay on DLD-1 colon was more than 100 µM; in the assay with DMS 114 small cell lung, more than 100 µM; in the assay on DMS 273 small cell lung, more than 100 µM; in the assay on LXFL 529 NSCLC, more than 100 µM; in the assay with RXF-631 renal it was 70.3 µM; in the assay on SNB-78 CNS it was more than 100 µM. In addition, the TGI in the assay on XF 498 CNS turned out to be 20.4 µM.
In the case of `NC(=O)c1cn(Cc2ccccc2)c(=O)n1Cc1ccccc1`, the TGI in the assay on DLD-1 colon, with DMS 273 small cell lung, with LXFL 529 NSCLC, in the assay with SNB-78 CNS and in the assay with XF 498 CNS was more than 100 µM throughout.
Turning to `CC(=O)O[C@]12CCCCCC1C1(O)C(O)CCCCC12` (stereo partly specified), the TGI with DMS 114 small cell lung, with DMS 273 small cell lung, in the assay on LXFL 529 NSCLC, in the assay with SNB-78 CNS and in the assay on XF 498 CNS was more than 100 µM throughout.
For the compound `C1COCCSC2=C(SCCO1)SC(=C1SC3=C(SCCOCCOCCS3)S1)S2`, the TGI was more than 100 µM with DLD-1 colon; more than 100 µM in the assay on DMS 114 small cell lung; more than 100 µM with DMS 273 small cell lung; more than 100 µM in the assay on LXFL 529 NSCLC; more than 100 µM in the assay on SNB-78 CNS; 73.3 µM with XF 498 CNS.
Regarding `C1=NC(N(Cc2ccccc2)Cc2ccccc2)N(Cc2ccccc2)N1` (stereo unspecified), the TGI in the assay with DLD-1 colon was 67.9 µM; with DMS 114 small cell lung, 29.3 µM; in the assay with DMS 273 small cell lung it was 29.1 µM; with LXFL 529 NSCLC, 30.7 µM; with RXF-631 renal it was 56 µM; in the assay with SNB-78 CNS, more than 100 µM.
Regarding `CC(=O)O[C@@]12CO[C@@H]1CC(O)[C@@]1(C)C(=O)[C@H](O)C3=C(C)C(O)C[C@@](O)(C(OC(=O)c4ccccc4)C12)C3(C)C` (stereo partly specified), the TGI in the assay on SNB-78 CNS and with XF 498 CNS was more than 100 µM throughout.
